{"source": "patent US20220273007A1", "about": "“FUNCTIONAL FOOD FOR PREVENTING OR IMPROVING DYSURIA” (MARUHACHI MURAMATSU, INC., priority 2019, published 2022)", "key": {"[1]": {"test_system": "rat bladder smooth muscle", "assay": "Organ bath assay: 80 mM KCl contractile inhibition assay", "description": "The concentration of each fatty acid was set according to the amount thereof present in a 95% ethanol extract of akamoku (Japan Food Research Laboratories; JFRL quantitative analysis). […] Ethanol was used as a control. As in the example described above, 80 mM KCl, a contraction inducer, was also added to induce contraction. The tension (contractile force) of slices of rat bladder smooth muscle was then measured to evaluate contraction inhibition effects. […]\nThe maximum concentration of each fatty acid was set according to the amount thereof present in a 95% ethanol extract of akamoku (JFRL quantitative analysis). Concentrations of 7.1 μg/mL EPA, 21.3 μg/mL EPA, 71 μg/mL EPA, 4.7 μg/mL stearidonic acid, 14.1 μg/mL stearidonic acid, and 47 μg/mL stearidonic acid were set. As in the examples described above, 80 mM KCl, a contraction inducer, was also added to induce contraction. The tension (contractile force) of slices of rat bladder smooth muscle was then measured to evaluate contraction inhibition effects."}, "[2]": {"test_system": "acetic-acid-induced pollakiuria model rats", "assay": "In vivo assay (cystometry) using acetic-acid-induced pollakiuria model rats", "parameters": "species or system rat", "conditions": "0.5 mg/kg oral (MC solution)", "description": "In this experiment, 0.1% acetic acid diluted with normal saline was directly injected into the bladders of urethane-anesthetized rats to induce bladder hypersensitivity and create model rats having symptoms of acute (or chronic) pollakiuria, and in vivo assays were performed using these acetic-acid-induced pollakiuria model rats. […] In this way, the effects of the 95% ethanol extract of akamoku upon pollakiuric states in rats were investigated.\ncontrol (vehicle)=0.5% methyl cellulose (MC); and akamoku extract=50 mg/mL MC solution of akamoku extract.\n• Maximum intravesical pressure (voiding pressure) • Base pressure • Threshold pressure • Voiding interval • Volume per void\nUsing the model rats with symptoms of acute (chronic) pollakiuria created in experiment 13, a 50 mg/mL MC solution of 50% ethanol extract of akamoku was orally administered to the model rats (n=7). In the graphs in FIG. 18, measured parameters are the voiding intervals, volume per void, and voiding frequency per unit of time of the rats, and pollakiuria-symptomatic model rats are compared with control rats receiving 0.5% methyl cellulose (MC) solution. In this way, the effects of the 50% ethanol extract of akamoku upon pollakiuric states in rats are investigated.\nUsing the model rats with symptoms of acute (chronic) pollakiuria created in experiment 13, a 50 mg/mL aqueous solution of aqueous akamoku extract was orally administered to the model rats. In the graphs in FIG. 19, measured parameters are the voiding intervals, volume per void, and voiding frequency per unit of time of the rats, compared with control rats receiving ultrapure water. In this way, the effects of the aqueous akamoku extract upon pollakiuric states in rats are investigated.\nUsing the model rats with symptoms of acute (chronic) pollakiuria created in experiment 13, 0.5 mg/kg akamoku-derived fucoxanthin Fx (MC solution) was orally administered to the model rats. […] In the graphs in FIG. 20, measured parameters are the voiding intervals, volume per void, and voiding frequency per unit of time of the rats, compared with control rats receiving 0.5% methyl cellulose (MC) solution."}}, "data": [{"smiles": "CC/C=C\\C/C=C\\C/C=C\\CCCCCCCC(=O)O", "note": "[α-linolenic acid]", "values": [{"measurement": "activity at 36 µg/mL", "setting": "[1]; Rattus norvegicus, 36 μg/mL, 80 mM KCl, read-out: average contraction compared to 100% uninhibited contraction", "value": 86.8, "unit": "%"}]}, {"smiles": "CCCCC/C=C\\C/C=C\\C/C=C\\C/C=C\\CCCC(=O)O", "note": "[arachidonic acid]", "values": [{"measurement": "activity at 44 µg/mL", "setting": "[1]; Rattus norvegicus, 44 μg/mL, 80 mM KCl, read-out: average contraction compared to 100% uninhibited contraction", "value": 82, "unit": "%"}]}, {"smiles": "CC(=O)O[C@H]1CC(C)(C)C(=C=C/C(C)=C/C=C/C(C)=C/C=C/C=C(C)/C=C/C=C(\\C)C(=O)C[C@@]23O[C@]2(C)C[C@@H](O)CC3(C)C)[C@](C)(O)C1", "note": "[akamoku-derived fucoxanthin, fucoxanthin]", "values": [{"measurement": "improvement in 0.1% acetic-acid-induced pollakiuria", "setting": "[2]", "value": "significant improvement"}, {"measurement": "voiding frequency per unit of time", "setting": "[2]", "value": "decreased"}, {"measurement": "voiding interval", "setting": "[2]", "value": "tended to increase"}, {"measurement": "volume per void", "setting": "[2]", "value": "increased"}]}, {"smiles": "CC/C=C\\C/C=C\\C/C=C\\C/C=C\\CCCCC(=O)O", "note": "[stearidonic acid]", "values": [{"measurement": "average contraction compared to 100% uninhibited contraction", "setting": "[1]; 47 μg/mL, 80 mM KCl", "value": 75.6, "unit": "%"}, {"measurement": "activity at 4.7 µg/mL", "setting": "[1]; Rattus norvegicus, 4.7 μg/mL, 80 mM KCl, read-out: average contraction compared to 100% uninhibited contraction", "value": 87.8, "unit": "%"}, {"measurement": "activity at 14.1 µg/mL", "setting": "[1]; Rattus norvegicus, 14.1 μg/mL, 80 mM KCl, read-out: average contraction compared to 100% uninhibited contraction", "value": 89.5, "unit": "%"}, {"measurement": "activity at 47 µg/mL", "setting": "[1]; Rattus norvegicus, 47 μg/mL, 80 mM KCl, read-out: average contraction compared to 100% uninhibited contraction", "value": 68.5, "unit": "%"}, {"measurement": "inhibition of 80 mM KCl contraction", "setting": "[1]; fatty acid at amount present in 95% ethanol extract of akamoku (EPA 71 μg/mL, stearidonic acid 47 μg/mL)", "value": "significantly inhibited contraction"}]}, {"smiles": "CC/C=C\\C/C=C\\C/C=C\\C/C=C\\C/C=C\\CCCC(=O)O", "note": "[EPA, eicosapentaenoic acid]", "values": [{"measurement": "average contraction compared to 100% uninhibited contraction", "setting": "[1]; 71 μg/mL, 80 mM KCl", "value": 73.3, "unit": "%"}, {"measurement": "activity at 7.1 µg/mL", "setting": "[1]; Rattus norvegicus, 7.1 μg/mL, 80 mM KCl, read-out: average contraction compared to 100% uninhibited contraction", "value": 91.1, "unit": "%"}, {"measurement": "activity at 21.3 µg/mL", "setting": "[1]; Rattus norvegicus, 21.3 μg/mL, 80 mM KCl, read-out: average contraction compared to 100% uninhibited contraction", "value": 87.2, "unit": "%"}, {"measurement": "activity at 71 µg/mL", "setting": "[1]; Rattus norvegicus, 71 μg/mL, 80 mM KCl, read-out: average contraction compared to 100% uninhibited contraction", "value": 78.2, "unit": "%"}]}]}
